Measurements published in ChEMBL document CHEMBL1201862, “PubChem BioAssay data set” (2004).
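1) Cells in 96-well plates. 2) Compound, 48 h, 5 concentrations. 3) Linear interpolation between surrounding doses. 4) Unreached endpoint = highest concentration. GI50 is the concentration that inhibits growth by half.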 The source made the active and inactive calls. Rule as the data show it: active = GI50 up to about 1.1 µM and inactive = higher.

Assays:
Test in all cases: NCI tumour cell line growth inhibition, 48 h
HCC 2998 = tested on: HCC 2998
T47D = tested on: T47D
HOP-92 = tested on: HOP-92
OVCAR-5 = tested on: OVCAR-5
KM12 = tested on: KM12
NCI/ADR-RES = tested on: NCI/ADR-RES
DU-145 = tested on: DU-145
UO-31 = tested on: UO-31
A498 = tested on: A498
SW-620 = tested on: SW-620
NCI-H460 = tested on: NCI-H460
CAKI-1 = tested on: CAKI-1
UACC-257 = tested on: UACC-257
SNB-19 = tested on: SNB-19
OVCAR-3 = tested on: OVCAR-3
Hs-578T = tested on: Hs-578T
BT-549 = tested on: BT-549
RXF 393 = tested on: RXF 393
TK-10 = tested on: TK-10
ACHN = tested on: ACHN
SF-268 = tested on: SF-268
OVCAR-8 = tested on: OVCAR-8
SNB-75 = tested on: SNB-75
HL-60 = tested on: HL-60
SR = tested on: SR
PC-3 = tested on: PC-3
MDA-MB-435 = tested on: MDA-MB-435
IGROV-1 = tested on: IGROV-1
OVCAR-4 = tested on: OVCAR-4
Malme-3M = tested on: Malme-3M
COLO 205 = tested on: COLO 205
MDA-N = tested on: MDA-N
HT-29 = tested on: HT-29
SF-539 = tested on: SF-539
K562 = tested on: K562
NCI-H522 = tested on: NCI-H522
MDA-MB-231 = tested on: MDA-MB-231
NCI-H226 = tested on: NCI-H226
A549 = tested on: A549
NCI-H23 = tested on: NCI-H23
HCT-116 = tested on: HCT-116
MOLT-4 = tested on: MOLT-4
M14 = tested on: M14
RPMI-8226 = tested on: RPMI-8226
HOP-62 = tested on: HOP-62
LOX IMVI = tested on: LOX IMVI
EKVX = tested on: EKVX
U-251 = tested on: U-251
MCF7 = tested on: MCF7
SK-MEL-5 = tested on: SK-MEL-5
HCT-15 = tested on: HCT-15
SK-MEL-28 = tested on: SK-MEL-28
SF-295 = tested on: SF-295
786-0 = tested on: 786-0
SN12C = tested on: SN12C
CCRF-CEM = tested on: CCRF-CEM
SK-MEL-2 = tested on: SK-MEL-2
SK-OV-3 = tested on: SK-OV-3
UACC-62 = tested on: UACC-62

CO[C@@H]1C[C@H]2[C@@H]3CC[C@H]([C@H](C)CO)[C@@]3(C)CC[C@@H]2[C@@]2(C)CC[C@H]3C[C@]312
GI50 (HCC 2998): 36.1 µM (inactive) | GI50 (T47D): 24.8 µM (inactive) | GI50 (HOP-92): 21 µM (inactive) | GI50 (OVCAR-5): > 100 µM (inactive) | GI50 (KM12): 15.9 µM (inactive) | GI50 (NCI/ADR-RES): 34.3 µM (inactive) | GI50 (DU-145): > 100 µM (inactive) | GI50 (UO-31): 53.1 µM (inactive) | GI50 (A498): 80.4 µM (inactive) | GI50 (SW-620): 70.3 µM (inactive) | GI50 (NCI-H460): 26.7 µM (inactive) | GI50 (CAKI-1): 5.08 µM (inactive) | GI50 (UACC-257): 35.6 µM (inactive) | GI50 (SNB-19): 67.6 µM (inactive) | GI50 (OVCAR-3): > 100 µM (inactive) | GI50 (Hs-578T): 43.4 µM (inactive) | GI50 (BT-549): 13.3 µM (inactive) | GI50 (RXF 393): 26.2 µM (inactive) | GI50 (TK-10): > 100 µM (inactive) | GI50 (ACHN): 33.2 µM (inactive) | GI50 (SF-268): 35.7 µM (inactive) | GI50 (OVCAR-8): 49 µM (inactive) | GI50 (SNB-75): 89.9 µM (inactive) | GI50 (HL-60): 20.7 µM (inactive) | GI50 (SR): 37.5 µM (inactive) | GI50 (PC-3): 27.6 µM (inactive) | GI50 (MDA-MB-435): 37.8 µM (inactive) | GI50 (IGROV-1): 84.7 µM (inactive) | GI50 (OVCAR-4): 55.8 µM (inactive) | GI50 (Malme-3M): > 100 µM (inactive) | GI50 (COLO 205): 20.1 µM (inactive) | GI50 (MDA-N): 39.8 µM (inactive) | GI50 (HT-29): 20.7 µM (inactive) | GI50 (SF-539): 45.7 µM (inactive) | GI50 (K562): 26 µM (inactive) | GI50 (NCI-H522): 56 µM (inactive) | GI50 (MDA-MB-231): 31.6 µM (inactive) | GI50 (NCI-H226): 28.1 µM (inactive) | GI50 (A549): 69 µM (inactive) | GI50 (NCI-H23): 55.7 µM (inactive) | GI50 (HCT-116): 30.2 µM (inactive) | GI50 (MOLT-4): 32.5 µM (inactive) | GI50 (M14): 32.4 µM (inactive) | GI50 (RPMI-8226): 18.3 µM (inactive) | GI50 (HOP-62): > 100 µM (inactive) | GI50 (LOX IMVI): 18.8 µM (inactive) | GI50 (EKVX): 12.5 µM (inactive) | GI50 (U-251): 27.6 µM (inactive) | GI50 (MCF7): 19.2 µM (inactive) | GI50 (SK-MEL-5): 30.4 µM (inactive) | GI50 (HCT-15): 34 µM | GI50 (SK-MEL-28): 46.9 µM (inactive) | GI50 (SF-295): 28.5 µM (inactive) | GI50 (786-0): 62.5 µM (inactive) | GI50 (SN12C): 53.7 µM (inactive)

O=S(=O)(O)c1ccc(Nc2ccnc3ccccc23)cc1
GI50 (HCC 2998): > 100 µM (inactive) | GI50 (T47D): > 100 µM (inactive) | GI50 (HOP-92): > 100 µM (inactive) | GI50 (OVCAR-5): > 100 µM (inactive) | GI50 (KM12): > 100 µM (inactive) | GI50 (NCI/ADR-RES): > 100 µM (inactive) | GI50 (DU-145): > 100 µM (inactive) | GI50 (UO-31): > 100 µM (inactive) | GI50 (A498): > 100 µM (inactive) | GI50 (SW-620): > 100 µM (inactive) | GI50 (CAKI-1): > 100 µM (inactive) | GI50 (UACC-257): > 100 µM (inactive) | GI50 (SNB-19): > 100 µM (inactive) | GI50 (Hs-578T): > 100 µM (inactive) | GI50 (BT-549): > 100 µM (inactive) | GI50 (RXF 393): > 100 µM (inactive) | GI50 (TK-10): > 100 µM (inactive) | GI50 (ACHN): > 100 µM (inactive) | GI50 (SF-268): > 100 µM (inactive) | GI50 (OVCAR-8): > 100 µM (inactive) | GI50 (SNB-75): > 100 µM (inactive) | GI50 (HL-60): > 100 µM (inactive) | GI50 (SR): > 100 µM (inactive) | GI50 (CCRF-CEM): > 100 µM (inactive) | GI50 (SK-MEL-2): > 100 µM (inactive) | GI50 (PC-3): > 100 µM (inactive) | GI50 (MDA-MB-435): > 100 µM (inactive) | GI50 (IGROV-1): > 100 µM (inactive) | GI50 (OVCAR-4): > 100 µM (inactive) | GI50 (Malme-3M): > 100 µM (inactive) | GI50 (COLO 205): > 100 µM (inactive) | GI50 (MDA-N): > 100 µM (inactive) | GI50 (HT-29): > 100 µM (inactive) | GI50 (SF-539): > 100 µM (inactive) | GI50 (K562): > 100 µM (inactive) | GI50 (NCI-H522): > 100 µM (inactive) | GI50 (MDA-MB-231): > 100 µM (inactive) | GI50 (NCI-H226): > 100 µM (inactive) | GI50 (A549): > 100 µM (inactive) | GI50 (NCI-H23): > 100 µM (inactive) | GI50 (HCT-116): > 100 µM (inactive) | GI50 (MOLT-4): > 100 µM (inactive) | GI50 (M14): > 100 µM (inactive) | GI50 (RPMI-8226): > 100 µM (inactive) | GI50 (SK-OV-3): > 100 µM (inactive) | GI50 (HOP-62): > 100 µM (inactive) | GI50 (LOX IMVI): > 100 µM (inactive) | GI50 (EKVX): > 100 µM (inactive) | GI50 (U-251): > 100 µM (inactive) | GI50 (UACC-62): > 100 µM (inactive) | GI50 (MCF7): > 100 µM (inactive) | GI50 (SK-MEL-5): > 100 µM (inactive) | GI50 (HCT-15): > 100 µM | GI50 (SK-MEL-28): > 100 µM (inactive) | GI50 (SF-295): > 100 µM (inactive) | GI50 (786-0): > 100 µM (inactive) | GI50 (SN12C): > 100 µM (inactive)
